In patent publication US8946283B2, “Composition for preventing or treating obesity, dyslipidemia, fatty liver or diabetes containing indole-3-carbinol derivative as active ingredient” (Industry-Academic Cooperation Foundation, Yonsei University, priority 2011, dated 2015):

Assays:
[1] = tested on: 3T3-L1 cells; assay: Inhibition of adipocyte differentiation, Oil Red O staining of triglyceride; format: cell-based, mouse; conditions: for differentiation of the preadipocytes 3T3L1: 0.1, 1, 10, 50 and 100 μM, 14 days, vs DMSO control; for triglyceride accumulation in cells: 3T3-L1 cells, FIGS. 1-3
Method: Mouse adipocyte cell line (3T3-L1) was used to investigate the effect of various indole-3-carbinol derivatives on differentiation and growth of adipocytes. The preadipocytes, 3T3-L1 cells, were seeded on a 12-well plate and cultured to confluency using Dulbecco's modified Eagle's medium (DMEM) containing 1% penicillin-streptomycin, 1% nonessential amino acid and 10% fatal bovine serum (FBS), in a 5% CO2 incubator at 37° C. The 3T3-L1 cells grown to confluency were cultured for 2 days in MDI medium containing 0.5 mM isobutylmethylxanthine, 1 μM dexamethasone and 1 μg/mL insulin to differentiate them into adipocytes. Then, the cells were further cultivated in DMEM containing 1 μg/mL insulin to differentiate them into mature adipocytes. The cells were further cultured for 10 more days while replacing DMEM every other day to obtain fully differentiated adipocytes.
From the first day when MDI was added to the 3T3-L1 cells, 16 indole-3-carbinol derivative compounds were treated at concentrations of 0.1, 1, 10, 50 and 100 μM with 2-day intervals. The structure and molecular weight of the 16 indole-3-carbinol derivatives (B518, B521, B525, B528, B538, B540, B542, B544, B545, B546, B547, B549, B551, B556, B558 and B561) are described in Table 1. The derivative compounds were used after being dissolved in DMSO. Only DMSO was added to the negative control group.
After culturing for a total of 14 days, the medium was removed when the differentiation was completed and lipid droplets in the differentiated adipocytes were stained. For this, the cells were washed twice with phosphate buffered saline (PBS), fixed in 10% buffered neutral formalin (BNF) for 1 hour, washed once again with PBS, stained for 1 hour by adding 1 mL of Oil Red O dye, which specifically stains fat red, on the 12-well plate, and washed twice with distilled water. In order to measure the level of triglyceride contained in the differentiated 3T3-L1 cells, the stained lipid droplets were dissolved in 1 mL of isobutanol and optical density (OD) value was measured at 600 nm.

[2] = Body weight gain and visceral fat weight of mice fed high-fat test diet; format: in vivo, C57BL/6J mice; conditions: 0.05% in high-fat diet, 10 weeks
Method: (§1) The obesity-inducing control diet used in the test was high-fat diet (HFD: 40% fat calorie, 17 g lard+3% corn oil/100 g diet). Diets supplemented with indole-3-carbinol derivatives (B525 and B528) had the same composition as HFD, except that each derivative was included at 0.05% (see Table 2). The diabetic drug metformin was added at 0.1% or the hyperlipidemic drug atorvastatin was added at 0.01% to HFD as controls. The normal diet group (Chow) was fed with commercially available rodent chow.
(§2) 56 5-week-old male C57BL/6J mice (Orient, Korea) were accustomed to the laboratory environment for 1 week while feeding solid feed. Then, they were randomly divided into normal diet, high-fat diet and test groups (n=8/group) and bred for a total of 10 weeks. The diet was given between 10 and 11 a.m. every day together with water. Food intake was measured every day and body weight was measured once a week. In order to avoid transient body weight increase after feed intake, body weight was measured 2 hours after removing the feed. After fasting the test animal for at least 12 hours and anesthetizing with diethyl ether, blood, liver and visceral fat (epididymal fat, perirenal fat, mesenteric fat and retroperitoneal fat) were taken and weighed after washing with 0.1 M PBS (pH 7.4). Blood taken from the abdominal aorta was centrifuged at 1000×g for 15 minutes to separate the plasma.

[3] = Biochemical analysis of blood (plasma lipids) of mice fed high-fat test diet; format: in vivo, C57BL/6J mice; conditions: 0.05% in high-fat diet, 10 weeks
Method: as §1, §2
After 10 weeks of breeding, total cholesterol, triglyceride and glucose levels in the plasma and lipid level in the liver tissue were measured as follows. Total cholesterol, triglyceride and free fatty acid levels in the plasma were measured twice for each using a commercially available kit (Bio Clinical System).

[4] = Fasting blood sugar and oral glucose tolerance test in mice fed high-fat test diet; format: in vivo, C57BL/6J mice
Method: as §1, §2
On week 8 after feeding the test diet, oral glucose tolerance test was performed for all the groups. After fasting the mouse for 16 hours, glucose (2 g glucose/10 mL distilled water/kg body weight) was orally administered. Before and 15, 30, 60 and 120 minutes after the oral administration, the tail end was cut by about […] and blood was taken. Glucose level was measured using a glucose meter.

[5] = Liver weight and lipid level in liver tissue of mice fed high-fat test diet; format: in vivo, C57BL/6J mice; conditions: 0.05% in high-fat diet, 10 weeks
Method: as §1, §2
Lipids were extracted from the liver tissue according to Folch et al.'s method Folch J et al., J Biol. Chem. 226: 497-509 (1957)). After adding 1 mL of distilled water to 0.25 g of liver tissue, the liver tissue was homogenized using a Polytron homogenizer (IKA-Werke GmbH & Co., Ultra-Turrax, Staufen, Germany). After adding 5 mL of chloroform:methanol solution (2:1, v/v) to the homogenate and mixing well, the mixture was centrifuged at 1000×g for 10 minutes. After adding 2 mL of chloroform:methanol solution (2:1, v/v) again to the supernatant, the same procedure was repeated to completely separate the lipid components of the liver. After adding 3 mL of chloroform:methanol:0.05% CaCl2 (3:48:47, v/v/v) solution to the remaining pellets and mixing well for 1 minute, followed by centrifugation at 1000×g for 10 minutes, the resulting pellets were completely dried with nitrogen gas. The dried lipids were dissolved in 1 mL of methanol and then analyzed.
The same kit (Bio Clinical System) as that used for the plasma analysis was used to measure the triglyceride and cholesterol levels of the liver tissue.

O=C1N(CCc2ccccc2)c2ccc(Br)cc2C1(O)c1c[nH]c2ccccc12 (stereo not drawn) [B518, 5′-Bromo-3′-hydroxy-1′-(2-phenylethyl)-1′,3′-dihydro-1H,2′H-3,3′-biindol-2′-one]
differentiation of the preadipocytes 3T3L1 [1]: reduced the differentiation of the preadipocytes 3T3L1 in a concentration-dependent manner
triglyceride accumulation in cells [1]: effectively reduce triglyceride accumulation in cells

CN1C(=O)C(O)(c2c[nH]c3ccccc23)c2cc(Cl)ccc21 (stereo not drawn) [B521, 5′-Chloro-3′-hydroxy-1′-methyl-1′,3′-dihydro-1H,2′H-3,3′-biindol-2′-one]
differentiation of the preadipocytes 3T3L1 [1]: reduced the differentiation of the preadipocytes 3T3L1 in a concentration-dependent manner

C=CCN1C(=O)C(O)(c2c(C)[nH]c3ccccc23)c2cc(Br)ccc21 (stereo not drawn) [B525, 1′-Allyl-5′-bromo-3′-hydroxy-2-methyl-1′,3′-dihydro-1H,2′H-3,3′-biindol-2′-one]
differentiation of the preadipocytes 3T3L1 [1]: reduced the differentiation of the preadipocytes 3T3L1 in a concentration-dependent manner
triglyceride accumulation in cells [1]: effectively reduce triglyceride accumulation in cells
decrease of body weight gain as compared to HFD [2]: 21%
reduction of total visceral fat weight as compared to HFD [2]: 20%
weight of epididymal fat, perirenal fat, mesenteric fat and retroperitoneal fat as compared to HFD [2]: significantly reduced
reduction of arteriosclerotic index in blood plasma as compared to HFD [3]: 30%
reduction of total cholesterol level in blood plasma as compared to HFD [3]: 18%
reduction of triglyceride level in blood plasma as compared to HFD [3]: 32%
reduction of fasting blood sugar level as compared to HFD ([4]; 0.05% in high-fat diet, 8 weeks): 37%
effect on oral glucose tolerance compared to controls metformin and atorvastatin ([4]; OGTT, week 8): excellent effect of improving oral glucose tolerance, better than the controls metformin and atorvastatin
appearance of liver tissue as compared to HFD [5]: smaller and darker liver tissue
decrease of cholesterol level in liver tissue as compared to HFD [5]: 22%
decrease of liver weight as compared to HFD [5]: 26%
decrease of triglyceride level in liver tissue as compared to HFD [5]: 18%

O=C1N(CCc2ccccc2)c2ccccc2C1(O)c1c[nH]c2ccccc12 (stereo not drawn) [B538, 3′-Hydroxy-1′-(2-phenylethyl)-1′,3′-dihydro-1H,2′H-3,3′-biindol-2′-one]
differentiation of the preadipocytes 3T3L1 [1]: reduced the differentiation of the preadipocytes 3T3L1 in a concentration-dependent manner
triglyceride accumulation in cells [1]: effectively reduce triglyceride accumulation in cells

CCCCN1C(=O)C(O)(c2c[nH]c3ccccc23)c2cc(Br)ccc21 (stereo not drawn) [B540, 5′-Bromo-1′-butyl-3′-hydroxy-1′,3′-dihydro-1H,2′H-3,3′-biindol-2′-one]
differentiation of the preadipocytes 3T3L1 [1]: reduced the differentiation of the preadipocytes 3T3L1 in a concentration-dependent manner

O=C1N(Cc2ccccc2)c2ccccc2C1(O)c1c[nH]c2ccccc12 (stereo not drawn) [B542, 1′-Benzyl-3′-hydroxy-1′,3′-dihydro-1H,2′H-3,3′-biindol-2′-one]
differentiation of the preadipocytes 3T3L1 [1]: reduced the differentiation of the preadipocytes 3T3L1 in a concentration-dependent manner

CCN1C(=O)C(O)(c2c[nH]c3ccccc23)c2cc(Br)ccc21 (stereo not drawn) [B544, 5′-Bromo-1′-ethyl-3′-hydroxy-1′,3′-dihydro-1H,2′H-3,3′-biindol-2′-one]
differentiation of the preadipocytes 3T3L1 [1]: reduced the differentiation of the preadipocytes 3T3L1 in a concentration-dependent manner

Cc1ccc(CN2C(=O)C(O)(c3c[nH]c4ccccc34)c3ccccc32)cc1 (stereo not drawn) [B545, 3′-Hydroxy-1′-(4-methylbenzyl)-1′,3′-dihydro-1H,2′H-3,3′-biindol-2′-one]
differentiation of the preadipocytes 3T3L1 [1]: reduced the differentiation of the preadipocytes 3T3L1 in a concentration-dependent manner

O=C1N(Cc2ccc(Cl)cc2)c2ccccc2C1(O)c1c[nH]c2ccccc12 (stereo not drawn) [B546, 1′-(4-Chlorobenzyl)-3′-hydroxy-1′,3′-dihydro-1H,2′H-3,3′-biindol-2′-one]
differentiation of the preadipocytes 3T3L1 [1]: reduced the differentiation of the preadipocytes 3T3L1 in a concentration-dependent manner

Cc1[nH]c2ccccc2c1C1(O)C(=O)N(CCc2ccccc2)c2ccc(Cl)cc21 (stereo not drawn) [B547, 5′-Chloro-3′-hydroxy-2-methyl-1′-(2-phenylethyl)-1′,3′-dihydro-1H,2′H-3,3′-biindol-2′-one]
differentiation of the preadipocytes 3T3L1 [1]: reduced the differentiation of the preadipocytes 3T3L1 in a concentration-dependent manner

Cc1ccc(C)c(CN2C(=O)C(O)(c3c(C)[nH]c4ccccc34)c3ccccc32)c1 (stereo not drawn) [B549, 1′-(2,5-Dimethylbenzyl)-3′-hydroxy-2-methyl-1′,3′-dihydro-1H,2′H-3,3′-biindol-2′-one]
differentiation of the preadipocytes 3T3L1 [1]: reduced the differentiation of the preadipocytes 3T3L1 in a concentration-dependent manner

Cc1[nH]c2ccccc2c1C1(O)C(=O)N(Cc2cccs2)c2ccccc21 (stereo not drawn) [B551, 3′-Hydroxy-2-methyl-1′-(2-thienylmethyl)-1′,3′-dihydro-1H,2′H-3,3′-biindol-2′-one]
differentiation of the preadipocytes 3T3L1 [1]: reduced the differentiation of the preadipocytes 3T3L1 in a concentration-dependent manner

Cc1ccc(OCCN2C(=O)C(O)(c3c(C)[nH]c4ccccc34)c3ccccc32)cc1 (stereo not drawn) [B556, 3′-Hydroxy-2-methyl-1′-[2-(4-methylphenoxy)ethyl]-1′,3′-dihydro-1H,2′H-3,3′-biindol-2′-one]
differentiation of the preadipocytes 3T3L1 [1]: reduced the differentiation of the preadipocytes 3T3L1 in a concentration-dependent manner

COc1ccccc1OCCN1C(=O)C(O)(c2c(C)[nH]c3ccccc23)c2ccccc21 (stereo not drawn) [B558, 3′-Hydroxy-1′-[2-(2-methoxyphenoxy)ethyl]-2-methyl-1′,3′-dihydro-1H,2′H-3,3′-biindol-2′-one]
differentiation of the preadipocytes 3T3L1 [1]: reduced the differentiation of the preadipocytes 3T3L1 in a concentration-dependent manner

CC(=O)c1[nH]c2ccccc2c1C(=O)O [B561, 2-Acetyl-1H-indole-3-carboxylic acid]
differentiation of the preadipocytes 3T3L1 [1]: reduced the differentiation of the preadipocytes 3T3L1 in a concentration-dependent manner
